Consider one molecule from patent US20260223897A1, “SIAMENOSIDE I SWEETENED BEVERAGES WITH MOGROSIDE BLENDS” (The Coca-Cola Company, priority 2023, published 2026).

Test [1] concerns panelists. In words: Example 1 paired taste test: panelists select the more bitter sample. It counts as in vivo. Here is the method: The sample was tested within 24 hours at room temperature.
Taste tests were carried out with 7-9 panelists and run singlet to triplet.

For test [2], the system named is panelists. In words: Example 2 paired sensory test: more bitter sample. To be noted: Table 6. The test is classed as in vivo.
The test system of test [3] is panelists. In words: Example 3 paired sensory test: more bitter sample. It counts as in vivo. Here is the method: Samples were tested within 7 days. […] Each pair of mogroside blends was evaluated by each panelist in triplet.
In test [4] the test system is panelists. In words: Example 3 paired sensory test: higher licorice flavor. The test is classed as in vivo. Particulars: Table 14; Sample A = 500 ppm Siamenoside I alone vs Sample B (tri-blend of same row, 500 ppm total). Here is the method: Samples were tested within 7 days.
Sensory tests were carried out with 8-12 panelists. Each pair of mogroside blends was evaluated by each panelist in triplet.

For test [5] the following is noted: cited from earlier work.
In test [6] the test system is panelists. In words: Example 2 paired sensory test: higher licorice flavor. To be noted: Table 7; Sample A = 400 ppm Siamenoside I alone vs Sample B (blend, 400 ppm total).
In test [7] the test system is panelists. Kind of test: Example 2 paired sensory test: higher syrupy mouthfeel. Particulars: Table 10; Sample A = 400 ppm Siamenoside I alone vs Sample B (blend, 400 ppm total).

The structures appear in SMILES notation.

Turning to `C[C@H](CC[C@@H](O[C@@H]1O[C@H](CO[C@@H]2O[C@H](CO)[C@@H](O)[C@H](O)[C@H]2O)[C@@H](O)[C@H](O)[C@H]1O[C@@H]1O[C@H](CO)[C@@H](O)[C@H](O)[C@H]1O)C(C)(C)O)[C@H]1CC[C@@]2(C)[C@@H]3CC=C4[C@@H](CC[C@H](O[C@@H]5O[C@H](CO)[C@@H](O)[C@H](O)[C@H]5O)C4(C)C)[C@]3(C)[C@H](O)C[C@]12C` [Siamenoside I], the “Number of Panelists that chose A as more bitter” value with panelists [1] (Table 1, Sample A = 400 ppm siamenoside alone vs Sample B (blend of same row, 400 ppm total mogroside), filtered water) was 15; with panelists [1] (Table 2, Sample A = 400 ppm Siamenoside I alone vs Sample B (blend, 400 ppm total)), 6; in the test with panelists [1] (Table 3, Sample A = 400 ppm Siamenoside I alone vs Sample B (blend, 400 ppm total)) it was 10; in the test on panelists [1] (Table 3, Sample A = 500 ppm Siamenoside I alone vs Sample B (blend, 500 ppm total)), 7; with panelists [2] (Sample A = 400 ppm Siamenoside I alone vs Sample B (blend, 400 ppm total)), 17; in the test with panelists [2] (Sample A = 500 ppm Siamenoside I alone vs Sample B (blend, 500 ppm total), Sample B with 400 ppm of Siamenoside I), 12. Further, the “Number of Panelists that chose A as more bitter” value in the test with panelists [2] (Sample A = 500 ppm Siamenoside I alone vs Sample B (blend, 500 ppm total), Sample B with 450 ppm of Siamenoside I) came to 15; in the test with panelists [2] (Sample A = 500 ppm Siamenoside I alone vs Sample B (blend, 500 ppm total), Sample B with 487.5 ppm of Siamenoside I) it was 13. The “Number of Panelist to choose A as more bitter” value with panelists [3] (Table 11, Sample A = 500 ppm Siamenoside I alone vs Sample B (tri-blend, 500 ppm total)) was determined as 19; with panelists [3] (Table 13, Sample A = 500 ppm Siamenoside I alone vs Sample B (blend, 500 ppm total)), 16. Also, in the test with panelists [4], the “Number of Panelist to choose A as higher licorice flavor” value is 23. Also, in test [5] (WO 2018213683 A1), the “taste balance compared with mogroside V” value was “better balance in sweetness, bitterness, sweet linger, astringency, and mouthfeel than mogroside V”. Moreover, the “sensory properties at high concentrations” value in test [5] (high purity, concentrations required to achieve a sucrose equivalence to 10° Brix) is “significant off-tastes such as licorice, metallic and bitter tastes, as well as sweetness lingering and bitter lingering”. In addition, the “Number of Panelist that chose A as higher licorice flavor” value with panelists [6] is given as 20. Moreover, the “Number of Panelist to choose A as higher syrupy mouthfeel” value in the test on panelists [7] is given as 7.
